Results taken from patent publication US10143666B2, “Small molecule inhibitors targeting CAG-repeat RNA toxicity in polyglutamine diseases” (The Chinese University of Hong Kong, priority 2015, dated 2018).
Values joined by “and” are separate entries in the source; they are usually repeats but may differ in a detail not shown here. Equal entries are not always repeated.

Tests used:
[1] = Body temperature (rectum) in R6/2 mice; settings: for Body temperature vs vehicle: day 7, p<0.05
Description: Body temperature was measured from rectum on day 1 (baseline), and on days 3, 5 and 7.
Body temperature was measured from rectum on day 1 (baseline) and on days 3, 5 and 7.

trMJDCAA/G78 cells = assay: LDH cytotoxicity assay, trMJDCAA/G78 cell model; assay type: cell-based, human; settings: only trMJDQ78 protein toxicity
Description: (§1) It was next investigated whether DB213 could mitigate expanded CAG-repeat RNA-mediated toxicity in SK-N-MC human neuronal cell. […] Taken together, DB213 could suppress the expanded CAG RNA-mediated but not polyQ protein-mediate toxicity in human neuronal cell.
(§2) SK-N-MC human neuronal cells were seeded on a 24-well plate and lactate dehydrogenase enzyme activity in the cell culture medium was measured 72 hours post-transfection and drugs treatment using the Cytotox 96 non-radioactive cytotoxicity assay (Promega).

DsRedCAG0 control fly = test system: DsRedCAG0 control fly; set-up: species or system Drosophila; settings: in vivo
Text: The synthesis of DB213 was described in Marcheschi et al. (Scheme 1)^12, see FIG. 1. By using a MJD (one kind of polyQ diseases) Drosophila disease model, the inventors established an effective screening platform to test a series of synthesized small molecules for their activity to suppress polyQ-induced neurodegeneration. […] To test whether the compounds acted on CAG-repeat RNA level, another Drosophila model, DsRedCAG100^6, was employed. […] Therefore, DB213 was confirmed to modulate expanded CAG-repeat RNA-mediated toxicity in vivo.
(§3) Flies were raised at 21.5° C. on cornmeal medium supplemented with dry yeast. Pseudopupil assay was performed on 12 day-old adult flies as mentioned previously^18. Images were captured by SPOT Insight CCD camera controlled by the SPOT Advanced software (Diagnostic instruments Inc.). External eye assay was performed on 12 day-old adult flies by Olympus SZX-12 stereomicroscope. Eye images were captured using a SPOT Insight CCD camera (Diagnostic instruments Inc.).

[2] = test system: primary rat cortical neurons; assay: Cytotoxicity test on primary rat cortical neurons; assay type: cell-based
Text: To address the specificity of DB213 on expanded CAG-repeat RNA toxicity in vitro, another small molecule compound, C4G2, labeled as ligand 3 in the study^17, was employed.

R6/2 Huntington's mice = assay: Tolerability / mortality in R6/2 Huntington's mice after i.n. or i.v. dosing; settings: for Mice lost in total: all dose groups; for Highest tolerated dose: R6/2 mice
Description: The objective of this study was to investigate the tolerability of i.n. or i.v. administrated Compound-5 (DB213) treatment on 1) neurological index (NI) scores, 2) body weight, 3) body temperature and 4) activity in open field test in R6/2 Huntington's mice.
i.n.: Group 1: 3 female and 3 male R6/2 mice treated with i.n. vehicle starting at 6 weeks of age and continuing for 7 days; Group 2: 3 female and 3 male R6/2 mice treated i.n. daily with Compound-5 at 50 mg/kg starting at 6 weeks of age and continuing for 7 days; Group 3: 3 female and 3 male R6/2 mice treated i.n. daily with Compound-5 at 100 mg/kg starting at 6 weeks of age and continuing for 7 days; Group 4: 3 female and 3 male R6/2 mice treated i.n. daily with Compound-5 at 200 mg/kg starting at 6 weeks of age and continuing for 7 days; Group 5: 3 female and 3 male R6/2 mice treated i.n. daily with Compound-5 at 300 mg/kg starting at 6 weeks of age and continuing for 7 days.
Compound-5 or vehicle was administered i.n. daily or i.v. twice-a-week starting at 6 weeks of age for 7 days.
i.v. administration: mice received 2 weekly i.v. injections into the tail vein. Mice were weighed on each treatment day and the dose adjusted accordingly to 1 ml/kg dose volume. For example, a mouse with a 30 g body weight received an i.v. injection of 30 μl. The whole i.v. injection process took 5-8 min per mouse.
i.n. administration: using a three fingered scruff, each mouse was restrained twice and held with neck parallel to the table while the compound was administered. The volume was 0.56 ml/kg. For example, a mouse with a 30 g body weight received in total 16.8 μl. During each restraint, 8.4 μl was administered to the left nostril as two 4.2 μl drops, followed by a 15 sec hold, and 8.4 μl was administered to the right nostril as two 4.2 μl drops, followed by a 15 sec hold. Notes were taken on the success of delivery and any lost volume greater than 2 μl were re-administered.
Animals were monitored twice-a-day by laboratory personnel (8 am and […]). […] Definitions of acceptable endpoints included: no spontaneous movements and inability to drink or eat in 24-h observation period, massive bleeding, spontaneous inflammation, missing anatomy, swelling or tumors larger than 20 mm, and inability to right itself in 30 sec period.

trMJDCAG78 cells = assay: LDH cytotoxicity assay, trMJDCAG78 cell model; assay type: cell-based, human; settings: both RNA and polyQ protein toxicities
Description: as §1, §2

CGG90 fly = assay: Neurodegeneration in CGG90 fly (Fragile X syndrome model); assay type: in vivo, Drosophila
Description: Other disease fly models, including α-synuclein (Parkinson's disease)^13, CTG480 (Myotonic dystrophy 1)^14 and CGG90 (Fragile X syndrome)^15 were employed to address the specificity of DB213 on trinucleotide repeat expansion RNA toxicity.
as §3

[3] = i.v. 200 mg/kg group (so in the source)
[4] = i.v. 300 mg/kg group (so in the source)

SMILES: CN(C)CCCNC(=N)c1ccc(C(=N)NCCCN(C)C)cc1.Cl.Cl.Cl.Cl [DB213]
- Body temperature vs vehicle ([1]; i.n. 100 mg/kg): increased
- Body temperature vs vehicle ([1]; i.n. 300 mg/kg): increased
- Body temperature (group Mean) ([1]; i.n. daily 50 mg/kg, Day 1 (baseline)): 36.9
- Body temperature (individual mouse) ([1]; i.n. daily 50 mg/kg, Day 1 (baseline), listed as Compound-5, 50 mg/kg): 37 and 35.9 and 36.4
- Body temperature (group Mean) ([1]; i.n. daily 50 mg/kg, Day 3): 36.9
- Body temperature (individual mouse) ([1]; i.n. daily 50 mg/kg, Day 3, listed as Compound-5, 50 mg/kg): 36.9 and 35.8 and 37
- Body temperature (individual mouse) ([1]; i.n. daily 50 mg/kg, Day 5, listed as Compound-5, 50 mg/kg): 37.9
- Body temperature (individual mouse) ([1]; i.n. daily 50 mg/kg, Day 7, listed as Compound-5, 50 mg/kg): 37 and 38.1
- Body temperature (group Mean) ([1]; i.n. daily 100 mg/kg, Day 1 (baseline)): 37.0
- Body temperature (individual mouse) ([1]; i.n. daily 100 mg/kg, Day 3, listed as Compound-5, 100 mg/kg): 37.7 and 37 and 36.9
- Body temperature (individual mouse) ([1]; i.n. daily 100 mg/kg, Day 5, listed as Compound-5, 100 mg/kg): 37.7 (2×) and 36.6 and 37.9 and 36.9
- Body temperature (individual mouse) ([1]; i.n. daily 100 mg/kg, Day 7, listed as Compound-5, 100 mg/kg): 38.1 and 37.7 and 36.9
- Body temperature (individual mouse) ([1]; i.n. daily 200 mg/kg, Day 1 (baseline), listed as Compound-5, 200 mg/kg): 36.9 (2×) and 37.7
- Body temperature (individual mouse) ([1]; i.n. daily 200 mg/kg, Day 3, listed as Compound-5, 200 mg/kg): 36.6
- Body temperature (individual mouse) ([1]; i.n. daily 200 mg/kg, Day 5, listed as Compound-5, 200 mg/kg): 38
- Body temperature (individual mouse) ([1]; i.n. daily 300 mg/kg, Day 5, listed as Compound-5, 300 mg/kg): 38
- Body temperature (individual mouse) ([1]; i.n. daily 300 mg/kg, Day 7, listed as Compound-5, 300 mg/kg): 37.9
- Body temperature (group Mean) ([1]; i.v. 50 mg/kg (treatment discontinued), Day 3, n 1): 37.7
- Body temperature (group Mean) ([1]; i.v. 50 mg/kg (treatment discontinued), Day 5, n 1): 38.0
- Body temperature (group Mean) ([1]; i.v. 50 mg/kg (treatment discontinued), Day 7, n 1): 37.0
- Body temperature, differences between treatment groups ([1]; i.v. dosing, p>0.05): no significant differences
- Body temperature (group Mean) ([1]; i.v. twice-a-week 12.5 mg/kg, Day 1 (baseline)): 36.7
- Body temperature (individual mouse) ([1]; i.v. twice-a-week 12.5 mg/kg, Day 1 (baseline), listed as Compound-5): 35.7 and 37
- Body temperature (individual mouse) ([1]; i.v. twice-a-week 12.5 mg/kg, Day 3, listed as Compound-5): 38
- Body temperature (group Mean) ([1]; i.v. twice-a-week 12.5 mg/kg, Day 5): 37.0
- Body temperature (individual mouse) ([1]; i.v. twice-a-week 12.5 mg/kg, Day 5, listed as Compound-5): 37
- Body temperature (individual mouse) ([1]; i.v. twice-a-week 12.5 mg/kg, Day 7, listed as Compound-5): 37 and 38.6
- Body temperature (group Mean) ([1]; i.v. twice-a-week 25 mg/kg, Day 1 (baseline)): 37.0
- Body temperature (individual mouse) ([1]; i.v. twice-a-week 25 mg/kg, Day 1 (baseline), listed as Compound-5): 37.9 and 36.6 and 36.4 and 38.5
- Body temperature (individual mouse) ([1]; i.v. twice-a-week 25 mg/kg, Day 3, listed as Compound-5): 36.9
- Body temperature (individual mouse) ([1]; i.v. twice-a-week 25 mg/kg, Day 5, listed as Compound-5): 37.9
- Body temperature ([1]; intranasal dosing): increased
- Cell death level (LDH assay) (trMJDCAA/G78 cells): did not alter the cell death level
- Dominant toxic effect in control fly (DsRedCAG0 control fly): did not show any dominant toxic effect
- No observed cytotoxicity up to ([2]; cellular toxicity): up to 12.8 μM
- Concentration up to which viability of wild-type primary neurons was not compromised ([2]; primary rat cortical neurons): up to 12,800 nM
- Mortality (R6/2 Huntington's mice; both intranasal and intravenous treatment): increase mortality in dose-dependent manner
- Mice lost (R6/2 Huntington's mice; i.n. daily 50 mg/kg, 7 days): 1 mouse
- Mice lost, share of group (R6/2 Huntington's mice; i.n. daily 50 mg/kg, 7 days): 16.7%
- Mice lost (R6/2 Huntington's mice; i.n. daily 100 mg/kg, 7 days): 2 mice
- Mice lost, share of group (R6/2 Huntington's mice; i.n. daily 100 mg/kg, 7 days): 33.3%
- Mice lost (R6/2 Huntington's mice; i.n. daily 200 mg/kg, 7 days): 4 mice
- Mice lost, share of group (R6/2 Huntington's mice; i.n. daily 200 mg/kg, 7 days): 66.7%
- Mice lost (R6/2 Huntington's mice; i.n. daily 300 mg/kg, 7 days): 3 mice
- Mice lost, share of group (R6/2 Huntington's mice; i.n. daily 300 mg/kg, 7 days): 50%
- Mice lost in total (R6/2 Huntington's mice; i.n. daily, 7 days): 10 mice
- Mice lost (R6/2 Huntington's mice; [3]): 2 mice
- Mice lost, share of group (R6/2 Huntington's mice; [3]): 100%
- Mice lost (R6/2 Huntington's mice; [4]): 2 mice
- Mice lost, share of group (R6/2 Huntington's mice; [4]): 100%
- Mice lost (R6/2 Huntington's mice; i.v. twice-a-week 25 mg/kg): 1 mouse
- Mice lost, share of group (R6/2 Huntington's mice; i.v. twice-a-week 25 mg/kg): 12.5%
- Mice lost (R6/2 Huntington's mice; i.v. twice-a-week 50 mg/kg): 3 mice
- Mice lost, share of group (R6/2 Huntington's mice; i.v. twice-a-week 50 mg/kg): 75%
- Mice lost in total (R6/2 Huntington's mice; i.v. twice-a-week): 8 mice
- Highest tolerated dose (R6/2 Huntington's mice; intranasally): 50 to 100 mg/kg
- Highest tolerated dose (R6/2 Huntington's mice; intravenously): 12.5 to 25 mg/kg
- Cell death (LDH assay) (trMJDCAG78 cells): only partially inhibited the abnormal cell death
- Suppression of neurodegeneration (CGG90 fly): did not suppress the neurodegeneration
